PMC6749325, “Hybrids of Cinchona Alkaloids and Bile Acids as Antiparasitic Agents Against Trypanosoma cruzi” (Molecules, 2019)
Converted amounts (≈) assume the structure as drawn.

How the values were obtained:
[1] = test system: T. cruzi Y (DTU II) trypomastigotes; assay: Trypomastigote IC50 estimation, Y strain; assay type: cell-based, Trypanosoma cruzi; conditions: 24 h incubation; for IC50: Trypanosoma cruzi, 24 h
Protocol: (§1) The NRK and Vero cell lines were routinely maintained in DMEM (Gibco) supplemented with 10% SFB (Natocor) and Penicillin/Streptomicin (100 Units/0.1mg/mL, Sigma) at 37 °C and 5% CO2 atmosphere. The trypomatigotes of T. cruzi strains CL Brener, Y, and RA were routinely maintained in Vero cells cultured in DMEM supplemented with 4% SFB and Penicillin/Streptomicin. The trypomastigotes of each strain were purified from infected Vero cells supernatants and used in the different assays.
(§2) 2 × 10^6/mL trypomastigotes were incubated with different concentrations of the hybrids, control drug or vehicle, by triplicate at 37 °C and 5% CO2 for 24 h. Next, trypomastigotes were counted in a Neubauer chamber. The IC50 ± SD (n = 3) were estimated using the “Dose–Response” module in Graphpad Prism.

[2] = test system: T. cruzi RA (DTU VI) trypomastigotes; assay: Trypomastigote IC50 estimation, RA strain; assay type: cell-based, Trypanosoma cruzi; conditions: 24 h incubation; for IC50: Trypanosoma cruzi, 24 h
Protocol: as §1, §2

[3] = test system: T. cruzi CL Brener trypomastigotes; assay: Trypomastigote IC50 estimation, CL Brener strain; assay type: cell-based, Trypanosoma cruzi; conditions: for IC50: Trypanosoma cruzi, 24 h; for IC50 / T. cruzi CL Brener IC50: trypomastigotes, 24 h incubation, IC50 ± SD (n = 3); for Selectivity NRK/T. cruzi (SI): IC50NRK/IC50 parasite, CL Brener trypomastigotes
Protocol: as §1, §2

NRK cells = assay: NRK cell IC50 estimation (cytotoxicity, crystal violet); assay type: cell-based; conditions: 48 h incubation; for IC50: Rattus norvegicus, NRK, 48 h
Protocol: as §1
1 × 10^5/mL NRK cells were grown overnight in a 96 multi-well plate. The culture medium was replaced by a culture medium containing increasing concentrations of hybrids, control drugs or vehicles, and cells incubated at 37 °C and 5% CO2 for 48 h. Next, cells were washed, fixed for 10 min with cold methanol (Sintorgan), and stained with violet crystal (Sigma 0.5% in methanol). After an exhaustive wash, cells were dried overnight. 10% acetic acid (Biopack) was added to each well, and the absorbance measured at 600 nm. Similarly, a standard curve was prepared (absorbance vs. increasing concentrations of NRK cells) to estimate the NRK IC50 using Graphpad Prism.

T. brucei = test system: T. brucei; set-up: method as in PMID 23816880; conditions: compared with the commercial drug suramin; cited from earlier work
[4] = test system: intracellular amastigotes of the Y strain; assay: Amastigote count in infected NRK cells; assay type: cell-based, Trypanosoma cruzi; conditions: hybrid at trypomastigote IC50 for the Y strain, 48 h, compared to untreated infected cells
Source text: Not only the genetic diversity among strains should be taken into account while searching for new drugs. Differential susceptibility of the different life cycle stages of the parasite within the same strain [18] should be also considered. In this regard, Bz and Nf effectiveness against axenic epimastigotes and the intracellular stages of T. cruzi have been already reported. […] More importantly, given that in the chronic phase of Chagas disease, current chemotherapy is not efficient and that parasitemia is usually low, performing new drug screenings on the intracellular replicative stage of the parasite appears to be the better approach. To confirm their anti-parasitic activity, nine of the hybrids were evaluated against intracellular amastigotes of the Y strain at the IC50 found for trypomastigotes of the same strain. Briefly, trypomastigotes were incubated with NRK cells and left to infect for two hours. […] Forty-eight hours post infection, cells were fixed and stained, and amastigotes/100 cells were calculated.
Infections were performed as previously described. […] After 48 h of incubation, cells were fixed with 4% formalin, stained with DAPI and photographed in a fluorescence microscope (Olympus). The amastigotes/100 cells were determined counting 1000 cells from each well (3000 cells/compound) using the ImageJ cell counter plugin. […]

[5] = test system: trypomastigotes of the Y strain released from infected NRK cells; assay: Trypomastigote release assay; assay type: cell-based, Trypanosoma cruzi; conditions: 72 hours of treatment then drug-free medium, vs non-treated control
Source text: To fully eliminate the intracellular parasite, a trypanocidal drug action is ideally desired. For trypanostatic drugs, a longer chemotherapy is required to allow the elimination of the intracellular parasite, since the anti-parasitic effect could be reversed upon removal of the drug. In order to characterize the antiparasitic features of the hybrids, our strategy was to remove the hybrids from the medium of infected NRK cells and let the infection develop. In this approach, after the two hour infection of NRK cells with trypomastigotes of the Y strain, compounds were added and left for 72 hours before being replaced with fresh medium without drugs. Six days post infection, the trypomastigotes released to the supernatant were quantified. […]
NRK cells were cultured and treated as described in Section 4.1. […] At day 6 pi, the released trypomastigotes in the supernatant of infected were counted using a Neubauer chamber.
In all cases, 3 independent experiments were done by triplicate. […] The mean ± SD of amastigotes/100 cells or trypomastigote released were calculated and analyzed with one-way ANOVA with Dunnett posttest performed with Graphpad Prism software.

| Compound | IC50 [1] | IC50 [2] | IC50 [3] | NRK Cells IC50 (NRK cells) | Selectivity NRK/T. cruzi (SI) [3] | T. cruzi CL Brener IC50 [3] | IC50 (NRK cells) | trypanocidal activity against T. brucei, IC50 (T. brucei) | Effect on intracellular amastigotes (amastigotes/100 cells) [4] | Trypomastigote count in the supernatant of infected cells at day six post infection [5] | T. cruzi Y (DTU II) IC50 [1] | T. cruzi RA (DTU VI) IC50 [2] |
| --- | --- | --- | --- | --- | --- | --- | --- | --- | --- | --- | --- | --- |
| O=C(Cn1ccnc1[N+](=O)[O-])NCc1ccccc1 [Bz, benznidazole, reference compound] | ≥ 15 µg/mL | 2.5 ± 0.32 µg/mL (≈ 9.61 µM) | 2.5 ± 0.01 µg/mL (≈ 9.61 µM) | – | – | – | – | – | – | – | – | – |
| C=CC1CN2CCC1CC2C(O)c1cc(CCC(C)C2CCC3C4CCC5CC(OC(C)=O)CCC5(C)C4CCC23C)nc2ccc(OC)cc12 (stereo not drawn) [Hybrid 4a] | – | – | – | 1.41 ± 0.13 µg/mL | 2.20 | 0.64 ± 0.15 µg/mL | – | – | – | – | – | – |
| C=CC1CN2CCC1CC2C(O)c1cc(CCC(C)C2CCC3C4C(OC(C)=O)CC5CC(OC(C)=O)CCC5(C)C4CCC23C)nc2ccc(OC)cc12 (stereo not drawn) [Hybrid 4b] | – | – | 0.8 ± 0.13 µg/mL (≈ 1.06 µM) | – | 4.89 | – | 3.91 ± 0.29 µg/mL (≈ 5.18 µM) | – | – | – | – | – |
| C=CC1CN2CCC1CC2C(O)c1cc(CCC(C)C2CCC3C4CCC5CC(OC(C)=O)CCC5(C)C4CCC23C)nc2ccc(OC)cc12 (stereo not drawn) [Hybrid 4c] | ≥ 1 µg/mL | – | 1.08 ± 0.23 µg/mL (≈ 1.55 µM) | 16.53 ± 0.18 µg/mL | 15.30 | – | – | – | – | – | – | – |
| C=CC1CN2CCC1CC2C(O)c1cc(CCC(C)C2CCC3C4C(OC(C)=O)CC5CC(OC(C)=O)CCC5(C)C4CCC23C)nc2ccc(OC)cc12 (stereo not drawn) [Hybrid 4d] | – | – | – | 3.30 ± 0.08 µg/mL | 4.58 | 0.72 ± 0.07 µg/mL | – | in the same range as the commercial drug suramin | – | – | – | – |
| C=CC1CN2CCC1CC2C(O)c1cc(CCC(C)C2CCC3C4CCC5CC(OC(C)=O)CCC5(C)C4CCC23C)nc2ccccc12 (stereo not drawn) [Hybrid 4e] | – | – | 1.16 ± 0.15 µg/mL (≈ 1.74 µM) | – | 6.46 | – | 7.5 ± 0.29 µg/mL (≈ 11.2 µM) | – | – | – | – | – |
| C=CC1CN2CCC1CC2C(O)c1cc(CCC(C)C2CCC3C4C(OC(C)=O)CC5CC(OC(C)=O)CCC5(C)C4CCC23C)nc2ccccc12 (stereo not drawn) [Hybrid 4f] | – | – | 0.51 ± 0.06 µg/mL (≈ 0.703 µM) | – | 13.04 | – | 6.69 ± 1.51 µg/mL (≈ 9.23 µM) | in the same range as the commercial drug suramin | significant reduction in intracellular amastigotes | significantly lower than non-treated control | 0.50 ± 0.03 µg/mL | 0.25 ± 0.10 µg/mL |
| C=CC1CN2CCC1CC2C(O)c1cc(CCC(C)C2CCC3C4CCC5CC(OC(C)=O)CCC5(C)C4CCC23C)nc2ccccc12 (stereo not drawn) [Hybrid 4g] | 3.05 ± 0.71 µg/mL (≈ 4.57 µM) | 1.1 ± 0.21 µg/mL (≈ 1.65 µM) | – | 12.30 ± 0.81 µg/mL | 9.46 | 1.30 ± 0.01 µg/mL | – | – | – | – | – | – |
| C=CC1CN2CCC1CC2C(O)c1cc(CCC(C)C2CCC3C4C(OC(C)=O)CC5CC(OC(C)=O)CCC5(C)C4CCC23C)nc2ccccc12 (stereo not drawn) [Hybrid 4h] | – | – | – | 6.50 ± 0.28 µg/mL | 9.28 | 0.70 ± 0.18 µg/mL | – | in the same range as the commercial drug suramin | – | – | ≥2.00 µg/mL | 1.50 ± 0.50 µg/mL |
| C=CC1CN2CCC1CC2C(O)c1cc(CCC(C)C2CCC3C4CCC5CC(O)CCC5(C)C4CCC23C)nc2ccc(OC)cc12 (stereo not drawn) [Hybrid 5a] | – | – | – | 15.30 ± 4.04 µg/mL | 4.12 | 3.71 ± 0.13 µg/mL | – | – | – | – | – | – |
| C=CC1CN2CCC1CC2C(O)c1cc(CCC(C)C2CCC3C4C(O)CC5CC(O)CCC5(C)C4CCC23C)nc2ccc(OC)cc12 (stereo not drawn) [Hybrid 5b] | – | – | – | 5.10 ± 0.76 µg/mL | 5.67 | 0.90 ± 0.10 µg/mL | – | in the same range as the commercial drug suramin | – | – | – | – |
| C=CC1CN2CCC1CC2C(O)c1cc(CCC(C)C2CCC3C4CCC5CC(O)CCC5(C)C4CCC23C)nc2ccc(OC)cc12 (stereo not drawn) [Hybrid 5c] | ≥ 2 µg/mL | 0.79 ± 0.19 µg/mL (≈ 1.21 µM) | – | – | – | 0.78 ± 0.11 µg/mL | > 11 µg/mL | – | – | – | – | – |
| C=CC1CN2CCC1CC2C(O)c1cc(CCC(C)C2CCC3C4C(O)CC5CC(O)CCC5(C)C4CCC23C)nc2ccc(OC)cc12 (stereo not drawn) [Hybrid 5d] | – | – | – | 1.59 ± 0.54 µg/mL | 3.98 | 0.40 ± 0.05 µg/mL | – | in the same range as the commercial drug suramin | – | – | – | – |
| C=CC1CN2CCC1CC2C(O)c1cc(CCC(C)C2CCC3C4CCC5CC(O)CCC5(C)C4CCC23C)nc2ccccc12 (stereo not drawn) [Hybrid 5e] | – | – | 3.96 ± 2.69 µg/mL (≈ 6.34 µM) | – | – | – | > 30 µg/mL | – | – | – | – | – |
| C=CC1CN2CCC1CC2C(O)c1cc(CCC(C)C2CCC3C4C(O)CC5CC(O)CCC5(C)C4CCC23C)nc2ccccc12 (stereo not drawn) [Hybrid 5f] | 0.65 ± 0.07 µg/mL (≈ 1.01 µM) | 0.31 ± 0.1 µg/mL (≈ 0.484 µM) | 0.34 ± 0.03 µg/mL (≈ 0.53 µM) | 4.02 ± 0.55 µg/mL | – | – | – | in the same range as the commercial drug suramin | significant reduction in intracellular amastigotes | significantly lower than non-treated control | – | – |
| C=CC1CN2CCC1CC2C(O)c1cc(CCC(C)C2CCC3C4CCC5CC(O)CCC5(C)C4CCC23C)nc2ccccc12 (stereo not drawn) [Hybrid 5g] | 3.25 ± 0.67 µg/mL (≈ 5.2 µM) | 3.03 ± 0.24 µg/mL (≈ 4.85 µM) | – | 27.11 ± 4.54 µg/mL | 10.58 | 2.56 ± 0.58 µg/mL | – | – | – | – | – | – |
| C=CC1CN2CCC1CC2C(O)c1cc(CCC(C)C2CCC3C4C(O)CC5CC(O)CCC5(C)C4CCC23C)nc2ccccc12 (stereo not drawn) [Hybrid 5h] | – | – | – | 0.67 ± 0.05 µg/mL | 2.23 | 0.30 ± 0.00 µg/mL | – | in the same range as the commercial drug suramin | – | – | – | – |
